Test results published in patent publication US20060148858A1, “1, 2-Azole derivatives with hypoglycemic and hypolipidemic activity” (priority 2002, published 2006).

Assays:
PPARγ-RXRα heterodimer = target: T1, PPARγ-RXRα heterodimer (Homo sapiens, UniProt P37231); assay: PPARγ-RXRα heterodimer ligand activity, luciferase reporter in PPARγ:RXRα:4ERPP/CHO-K1 cells (Test Example 3); format: cell-based; conditions: 18-48 hours, concentration for 50% of the maximum fold induction
T1 construct: expressed in transfected cells; host or cells: CHO-K1
T1 sequence (P37231 1-477 isoform P37231-2): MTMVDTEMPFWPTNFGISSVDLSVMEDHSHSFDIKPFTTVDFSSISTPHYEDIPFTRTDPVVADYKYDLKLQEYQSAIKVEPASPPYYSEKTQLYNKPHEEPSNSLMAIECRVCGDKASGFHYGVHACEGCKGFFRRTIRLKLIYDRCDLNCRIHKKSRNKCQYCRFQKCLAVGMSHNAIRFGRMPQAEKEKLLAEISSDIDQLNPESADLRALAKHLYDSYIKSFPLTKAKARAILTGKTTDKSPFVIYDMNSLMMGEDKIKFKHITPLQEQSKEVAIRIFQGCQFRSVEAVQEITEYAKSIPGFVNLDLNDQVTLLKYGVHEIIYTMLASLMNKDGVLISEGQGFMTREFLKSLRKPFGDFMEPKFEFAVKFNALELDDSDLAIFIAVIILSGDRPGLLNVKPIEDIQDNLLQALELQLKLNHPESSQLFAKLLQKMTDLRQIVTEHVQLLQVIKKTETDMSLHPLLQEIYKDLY
T1 sequence (P19793 1-462 partner): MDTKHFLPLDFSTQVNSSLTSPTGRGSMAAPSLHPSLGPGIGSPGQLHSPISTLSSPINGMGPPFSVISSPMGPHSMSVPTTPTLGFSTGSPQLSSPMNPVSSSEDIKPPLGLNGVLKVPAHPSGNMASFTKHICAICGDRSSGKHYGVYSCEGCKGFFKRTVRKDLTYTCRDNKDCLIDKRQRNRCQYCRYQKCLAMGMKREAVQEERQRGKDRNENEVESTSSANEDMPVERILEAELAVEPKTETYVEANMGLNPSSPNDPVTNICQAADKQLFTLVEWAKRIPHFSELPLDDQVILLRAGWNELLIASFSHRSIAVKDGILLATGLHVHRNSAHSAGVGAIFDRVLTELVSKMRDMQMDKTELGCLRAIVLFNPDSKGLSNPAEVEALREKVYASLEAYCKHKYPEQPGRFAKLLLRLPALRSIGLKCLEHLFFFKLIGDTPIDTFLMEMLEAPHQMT
Procedure, shortened: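 Stable CHO-K1 line co-expressing hPPARγ/RXR with 4ERPP-TK luciferase reporter, 2×10^4 cells per well, treated 18-48 h at 37° C. in HAM F12 with 0.1% fatty acid-free BSA. Luciferase fold induction versus untreated taken as 1; EC50 is concentration giving 50% of maximal fold induction.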

**Q.** What does the source list for CC(C)c1nn(-c2ccc(C(F)(F)F)cn2)cc1CCCOc1cc(CCC(=O)O)n(-c2ccccc2)n1 [Example 24, 3-[3-(3-{3-isopropyl-1-[5-(trifluoromethyl)-2-pyridyl]-1H-pyrazol-4-yl}propoxy)-1-phenyl-1H-pyrazol-5-yl]propionic acid]?
**A.** EC50 (PPARγ-RXRα heterodimer): 38 nM; melting point: 139 to 140 °C

**Q.** With CCOc1nn(-c2ccc(C(F)(F)F)cn2)cc1CCCOc1cccc(CC(=O)O)c1 [Example 30, [3-(3-{3-ethoxy-1-[5-(trifluoromethyl)-2-pyridyl]-1H-pyrazol-4-yl}propoxy)phenyl]acetic acid] as the compound, how does the EC50 (PPARγ-RXRα heterodimer) read?
**A.** 210 nM

**Q.** And the melting point?
**A.** 134 to 135 °C

**Q.** For CCOc1nn(-c2ccc(C(F)(F)F)cn2)cc1CCCOc1ccccc1CC(=O)O [Example 31, (2-(3-{3-ethoxy-1-[5-(trifluoromethyl)-2-pyridyl]-1H-pyrazol-4-yl}propoxy)phenyl]acetic acid], which EC50 (PPARγ-RXRα heterodimer) is on record?
**A.** 35 nM

**Q.** What about the melting point of the same compound?
**A.** 83 to 84 °C

**Q.** For CCOc1nn(-c2ccc(C(F)(F)F)cn2)cc1CCCOc1cc(CCC(=O)O)n(-c2ccccc2)n1 [Example 42, 3-[3-(3-{3-ethoxy-1-[5-(trifluoromethyl)-2-pyridyl]-1H-pyrazol-4-yl}propoxy)-1-phenyl-1H-pyrazol-5-yl]propionic acid], which EC50 (PPARγ-RXRα heterodimer) is on record?
**A.** 19 nM

**Q.** And the melting point?
**A.** 121 to 122 °C

**Q.** For CCCc1nn(-c2ccc(C(F)(F)F)cn2)cc1CCCOc1cc(CCC(=O)O)n(-c2ccccc2)n1 [Example 43, 3-[1-phenyl-3-(3-{3-propyl-1-[5-(trifluoromethyl)-2-pyridyl]-1H-pyrazol-4-yl}propoxy)-1H-pyrazol-5-yl]propionic acid], which EC50 (PPARγ-RXRα heterodimer) is on record?
**A.** 53 nM

**Q.** And the melting point?
**A.** 149 to 150 °C

**Q.** For CCCc1nn(-c2ccc(C(F)(F)F)cn2)cc1CCCCOc1cc(CCC(=O)O)n(-c2ccccc2)n1 [Example 58, 3-[1-phenyl-3-(4-{3-propyl-1-[5-(trifluoromethyl)-2-pyridinyl]-1H-pyrazol-4-yl}butoxy)-1H-pyrazol-5-yl]propanoic acid], which EC50 (PPARγ-RXRα heterodimer) is on record?
**A.** 43 nM

**Q.** What about the melting point of the same compound?
**A.** 123 to 124 °C

**Q.** With CCCc1nn(-c2ccc(C(F)(F)F)cn2)cc1CCCOc1ccc(CCC(=O)O)c(OCC)c1 [Example 98, 3-[2-ethoxy-4-(3-{3-propyl-1-[5-(trifluoromethyl)-2-pyridinyl]-1H-pyrazol-4-yl}propoxy)phenyl]propanoic acid] as the compound, how does the EC50 (PPARγ-RXRα heterodimer) read?
**A.** 110 nM

**Q.** And the melting point?
**A.** 119 to 120 °C

**Q.** Which EC50 (PPARγ-RXRα heterodimer) does the source give for CCOc1nn(-c2ccc(C(F)(F)F)cn2)cc1CCCCOc1cc(CCC(=O)O)n(-c2ccccc2)n1 [Example 104, 3-[3-(4-{3-ethoxy-1-[5-(trifluoromethyl)-2-pyridinyl]-1H-pyrazol-4-yl}butoxy)-1-phenyl-1H-pyrazol-5-yl]propanoic acid] here?
**A.** 34 nM

**Q.** What about the melting point of the same compound?
**A.** 138 to 139 °C

**Q.** What does the source list for CCOc1nn(-c2ccc(C(F)(F)F)cn2)cc1CCCOc1ccc(CCC(=O)O)c(OC(C)C)c1 [Example 116, 3-[4-(3-{3-ethoxy-1-[5-(trifluoromethyl)-2-pyridinyl]-1H-pyrazol-4-yl}propoxy)-2-isopropoxyphenyl]propanoic acid]?
**A.** EC50 (PPARγ-RXRα heterodimer): 82 nM; melting point: 104 to 105 °C

**Q.** For O=C(O)CCc1cc(OCCCc2cn(-c3ccc(C(F)(F)F)cn3)nc2-c2ccccc2)nn1-c1ccccc1 [Example 125, 3-[1-phenyl-3-(3-{3-phenyl-1-[5-(trifluoromethyl)-2-pyridyl]-1H-pyrazol-4-yl}propoxy)-1H-pyrazol-5-yl]propionic acid], which EC50 (PPARγ-RXRα heterodimer) is on record?
**A.** 26 nM

**Q.** And the melting point?
**A.** 175 to 176 °C

**Q.** Which EC50 (PPARγ-RXRα heterodimer) does the source give for CCOc1nn(-c2ccc(C(F)(F)F)cn2)cc1CCCCOc1ccccc1CC(=O)O [Example 137, [2-(4-{3-ethoxy-1-[5-(trifluoromethyl)-2-pyridyl]-1H-pyrazol-4-yl}butoxy)phenyl]acetic acid] here?
**A.** 35 nM

**Q.** And the melting point?
**A.** 109 to 110 °C

**Q.** With COc1cccc(CC(=O)O)c1OCCCc1cn(-c2ccc(C(F)(F)F)cn2)nc1C(C)C [Example 181, [2-(3-{3-isopropyl-1-[5-(trifluoromethyl)-2-pyridyl]-1H-pyrazol-4-yl}propoxy)-3-methoxyphenyl]acetic acid] as the compound, how does the EC50 (PPARγ-RXRα heterodimer) read?
**A.** 75 nM

**Q.** And the melting point?
**A.** 142 to 143 °C

**Q.** What does the source list for O=C(O)CCc1cc(OCCCc2cn(-c3ccc(C(F)(F)F)cn3)nc2C2CCCCC2)nn1-c1ccccc1 [Example 189, 3-[3-(3-{3-cyclohexyl-1-[5-(trifluoromethyl)-2-pyridyl]-1H-pyrazol-4-yl}propoxy)-1-phenyl-1H-pyrazol-5-yl]propionic acid]?
**A.** EC50 (PPARγ-RXRα heterodimer): 14 nM; melting point: 182 to 183 °C

**Q.** Which EC50 (PPARγ-RXRα heterodimer) does the source give for CCOc1ccc(CC(=O)O)cc1OCCCc1cn(-c2ccc(C(F)(F)F)cn2)nc1C1CCCCC1 [Example 201, [3-(3-{3-cyclohexyl-1-[5-(trifluoromethyl)-2-pyridyl]-1H-pyrazol-4-yl}propoxy)-4-ethoxyphenyl]acetic acid] here?
**A.** 63 nM

**Q.** And the melting point?
**A.** 134 to 135 °C

**Q.** With CCC(CC)c1nn(-c2ccc(C(F)(F)F)cn2)cc1CCCOc1c(CC(=O)O)cccc1OC [Example 212, [2-(3-{3-(1-ethylpropyl)-1-[5-(trifluoromethyl)-2-pyridyl]-1H-pyrazol-4-yl}propoxy)-3-methoxyphenyl]acetic acid] as the compound, how does the EC50 (PPARγ-RXRα heterodimer) read?
**A.** 13 nM

**Q.** And the melting point?
**A.** 100 to 101 °C

**Q.** Which EC50 (PPARγ-RXRα heterodimer) does the source give for CCC(CC)c1nn(-c2ccc(C(F)(F)F)cn2)cc1CCCOc1c(C)cccc1CC(=O)O [Example 213, [2-(3-{3-(1-ethylpropyl)-1-[5-(trifluoromethyl)-2-pyridyl]-1H-pyrazol-4-yl}propoxy)-3-methylphenyl]acetic acid] here?
**A.** 7.8 nM

**Q.** What about the melting point of the same compound?
**A.** 125 to 126 °C

**Q.** Which results are given for CCC(CC)c1nn(-c2ccc(Cl)cn2)cc1CCCOc1c(CC(=O)O)cccc1OC [Example 223, (2-{3-[1-(5-chloro-2-pyridyl)-3-(1-ethylpropyl)-1H-pyrazol-4-yl]propoxy}-3-methoxyphenyl)acetic acid]?
**A.** EC50 (PPARγ-RXRα heterodimer): 24 nM; melting point: 85 to 86 °C

**Q.** For CCc1cccc(CC(=O)O)c1OCCCc1cn(-c2ccc(C(F)(F)F)cn2)nc1C(C)C [Example 227, [3-ethyl-2-(3-{3-isopropyl-1-[5-(trifluoromethyl)-2-pyridinyl]-1H-pyrazol-4-yl}propoxy)phenyl]acetic acid], which EC50 (PPARγ-RXRα heterodimer) is on record?
**A.** 22 nM

**Q.** What about the melting point of the same compound?
**A.** 155 to 156 °C

**Q.** What does the source list for CCCc1nn(-c2ccc(C(F)(F)F)cn2)cc1CCCOc1c(Br)cccc1CC(=O)O [Example 237, [3-bromo-2-(3-{3-propyl-1-[5-(trifluoromethyl)-2-pyridinyl]-1H-pyrazol-4-yl}propoxy)phenyl]acetic acid]?
**A.** EC50 (PPARγ-RXRα heterodimer): 17 nM; melting point: 145 to 146 °C

**Q.** Which EC50 (PPARγ-RXRα heterodimer) does the source give for CCc1cccc(CC(=O)O)c1OCCCc1cn(-c2ccc(C(F)(F)F)nn2)nc1C(C)C [Example 245, [3-ethyl-2-(3-{3-isopropyl-1-[6-(trifluoromethyl)pyridazin-3-yl]-1H-pyrazol-4-yl}propoxy)phenyl]acetic acid] here?
**A.** 19 nM

**Q.** And the melting point?
**A.** 126 to 127 °C

**Q.** Which EC50 (PPARγ-RXRα heterodimer) does the source give for COc1cccc(CC(=O)O)c1OCCCc1cn(-c2ccc(C(F)(F)F)nn2)nc1C(C)C [Example 274, [2-(3-{3-isopropyl-1-[6-(trifluoromethyl)pyridazin-3-yl]-1H-pyrazol-4-yl}propoxy)-3-methoxyphenyl]acetic acid] here?
**A.** 82 nM

**Q.** What about the melting point of the same compound?
**A.** 92 to 93 °C

**Q.** Which results are given for COc1ccc(CC(=O)O)cc1OCCCc1cn(-c2ccc(C(F)(F)F)cn2)nc1C1CCCCC1 [Example 304, [3-(3-{3-cyclohexyl-1-[5-(trifluoromethyl)-2-pyridinyl]-1H-pyrazol-4-yl}propoxy)-4-methoxyphenyl]acetic acid]?
**A.** EC50 (PPARγ-RXRα heterodimer): 40 nM; melting point: 117 to 118 °C

**Q.** Which results are given for COc1cccc(CC(=O)O)c1OCCCc1cn(-c2ccc(Cl)cn2)nc1C(C)C [Example 311, (2-{3-[1-(5-chloro-2-pyridinyl)-3-isopropyl-1H-pyrazol-4-yl]propoxy}-3-methoxyphenyl)acetic acid]?
**A.** EC50 (PPARγ-RXRα heterodimer): 100 nM; melting point: 148 to 149 °C

**Q.** Which EC50 (PPARγ-RXRα heterodimer) does the source give for Cc1cccc(CC(=O)O)c1OCCCc1cn(-c2ccc(C(F)(F)F)cn2)nc1C1CCCCC1 [Example 316, [2-(3-{3-cyclohexyl-1-[5-(trifluoromethyl)-2-pyridinyl]-1H-pyrazol-4-yl}propoxy)-3-methylphenyl]acetic acid] here?
**A.** 3.8 nM

**Q.** And the melting point?
**A.** 184 to 185 °C

**Q.** With CCCc1nn(-c2ccc(C(F)(F)F)cn2)cc1CCCOc1c(C)cccc1CC(=O)O [Example 319, [3-methyl-2-(3-{3-propyl-1-[5-(trifluoromethyl)-2-pyridinyl]-1H-pyrazol-4-yl}propoxy)phenyl]acetic acid] as the compound, how does the EC50 (PPARγ-RXRα heterodimer) read?
**A.** 26 nM

**Q.** What about the melting point of the same compound?
**A.** 134 to 135 °C
